Our source for the EC50 values is US10722505B2, “Substituted 2,4 diamino-quinoline as new anticancer agents” (GENOSCIENCE PHARMA, priority 2014, dated 2020).

Each structure is given as a SMILES string.

The assay relates to BEL-7402 cells line. Put plainly: CellTiter-Glo growth inhibition assay, BEL-7402 (internal control). Particulars: Homo sapiens, 72 h. In kind it is cell-based. The procedure: When performing the assay, dose response test of Doxorubicin on BEL-7402 cells line (human primary hepatocellular carcinoma) will be used as internal control in each assay plate for the assay. The MEM medium supplemented with 5% H2O (5×) will be added into the cells as a negative controls. The final H2O concentration was 1% in each well.
Cells in log-phase are collected and counted. Cell suspensions are added to each well of 384-well plate at 800 cells per well (total volume 40 μl). The margin wells are filled with PBS buffer. Test compound at various concentrations are added in duplicates (add 10 μl 5× compound solutions to the plate). The assay plate is incubated for 72 h in 37° C./5% CO2 incubator. Cell viability was measured using the CellTiter-Glo® luminescent cell viability assay as described by the manufacturer (Promega, Ref G7571). After addition of 100 μL of CellTiter-Glo® reactifs solution, luminescence was measured using a PHERAstar Plus luminometer. Data were recorded by PHERAstar Plus, Data acquisition and analysis were performed using Microsoft Excel program and GraphPad Prism v.6 software.
On the technique in general: In ATP-based viability assays light output follows the ATP content of the culture.

Usually EC50 stands for the concentration giving half of the maximal effect. The low end stands for higher potency in that assay, the high end for lower potency in that assay.

Regarding `COc1cccc2c1C(=O)c1c(O)c3c(c(O)c1C2=O)C[C@@](O)(C(=O)CO)C[C@@H]3O[C@H]1C[C@H](N)[C@H](O)[C@H](C)O1` [Doxorubicin], it took 150 nM to reach a half-maximal effect (EC50).
